Test results published in patent US9011853B2, “B7-H4 fusion proteins and methods of use thereof” (Amplimmune, Inc., priority 2009, dated 2015).
Where “and” joins values, the source holds several entries; their conditions need not be identical. Equal values may be shown once.

Test system: serum levels of 58 analytes
Experiment: Serum biomarker analysis, quantitative immunoassay multi-analyte profiling (Rules-Based Medicine RodentMAP v2.9), AA#80
Type: in vivo, mouse
Conditions: serum, individual mice; for GCP-2 (Granulocyte Chemotactic Potein-2): LDD 0.0245; for IL-17-(Interleukin-17): LDD 0.152; for GST-alpha (Glutathione S-Transferase alpha): LDD 0.42; for IL-1beta (Interleukin-1beta): LDD 0.447; for IL-12p70-(Interleukin-12p70): LDD 0.5712; for FGF-basic (Fibroblast Growth Factor-basic): LDD 0.577; for Haptoglobin: LDD 0.64; for IL-18 (Interleukin-18): LDD 0.674; for CRP (C Reactive Protein): LDD 0.83; for Factor VII: LDD 0.958; for FGF-9 (Fibroblast Growth Factor-9): LDD 0.9926; for GM-CSF (Granulocyte Macrophage-Colony Stimulating Factor): LDD 8.746; for Apo A1 (Apoilpoprotein A1): LDD 10.4; for CD40: LDD 12; for Eotaxin: LDD 12.25; for IL-3 (Interleukin-3): LDD 21.274; for EGF (Epidermal Growth Factor): LDD 39.1; for IL-1alpha (Interleukin-1alpha): LDD 44.92; for Endothelin-1: LDD 66.95; for IL-2 (Interleukin-2): LDD 67; for IFN-gamma (Interferon-gamma): LDD 67.82; for IL-4 (Interleukin-4): LDD 73.54; for IL-11 (Interleukin-11): LDD 87.38; for CD40 Ligand: LDD 92; for IL-10 (Interleukin-10): LDD 109.26; for Fibrinogen: LDD 170
Description: In AA#80, serum samples were collected on Day 27, Day 34, Day 41 and Day 55 via the submandibular vein. Approximately 200 μL of blood per mouse was collected in Microtainer® serum separator tubes. Serum was removed following centrifugation and stored at <−65° C. until analysis.
Selected serum samples were sent to Rules-Based Medicine (Austin, Tex.) for quantitative immunoassay multi-analyte profiling of serum samples, with the goal of identifying biomarkers that could be used to monitor disease progression and response to B7-H4-Ig treatment. Day 27, Day 34, and Day 41 sera from the three representative mice in the B7-H4-Ig group (tag #3332, 3334, and 3338) and three representative mice in the Synagis® group (tag #3324, 3329, and 3330) were analyzed for levels of 58 analytes using the RodentMAP v2.9 Testing Service.
Data from the Rules-Based Medicine analysis was analyzed using Microsoft Excel and GraphPad Prism software. T-tests were performed to compare the levels of each analyte in the B7-H4-Ig versus Synagis® treated samples. No correction was made for multiple comparisons. Additionally, correlation coefficients were calculated for each analyte versus disease score.

## Human B7-H4-Ig: human B7-H4 extracellular domain fused to hinge, CH2 and CH3 regions of human immunoglobulin Cγ1 chain; representative SEQ ID NOs:114-137
Day 27
  GCP-2 (Granulocyte Chemotactic Potein-2): 18 ng/mL and 18.5 ng/mL and 16.6 ng/mL
  IL-17-(Interleukin-17): <low> (2×) and 0.00451 ng/ml
  GST-alpha (Glutathione S-Transferase alpha): <low>
  IL-1beta (Interleukin-1beta): 4.36 ng/ml (2×) and 1.98 ng/ml
  IL-12p70-(Interleukin-12p70): 0.0532 ng/ml (2×) and <low>
  FGF-basic (Fibroblast Growth Factor-basic): 18.8 ng/mL and 17.8 ng/mL and 16.8 ng/mL
  Haptoglobin: 161 µg/mL and 204 µg/mL and 123 µg/mL
  IL-18 (Interleukin-18): 13.3 ng/mL and 14.1 ng/mL and 11.7 ng/mL
  CRP (C Reactive Protein): 13.4 µg/mL and 8.16 µg/mL and 7.98 µg/mL
  Factor VII: 33 ng/mL and 29.1 ng/mL and 26.4 ng/mL
  FGF-9 (Fibroblast Growth Factor-9): <low>
  GM-CSF (Granulocyte Macrophage-Colony Stimulating Factor): <low>
  Apo A1 (Apoilpoprotein A1): 57.3 µg/mL and 53.7 µg/mL and 42.7 µg/mL
  CD40: 135 pg/ml (2×) and 151 pg/ml
  Eotaxin: 626 pg/mL and 613 pg/mL and 623 pg/mL
  IL-3 (Interleukin-3): <low>
  EGF (Epidermal Growth Factor): 18.4 pg/mL and 21.4 pg/mL and 20.4 pg/mL
  IL-1alpha (Interleukin-1alpha): 468 pg/mL and 284 pg/mL and 381 pg/mL
  Endothelin-1: 20.2 pg/ml (2×) and 17.1 pg/ml
  IL-2 (Interleukin-2): <low>
  IFN-gamma (Interferon-gamma): <low> (2×) and 7.14 pg/ml
  IL-4 (Interleukin-4): <low> and 27.9 pg/ml and 17.7 pg/ml
  IL-11 (Interleukin-11): <low> (2×) and 27 pg/ml
  CD40 Ligand: 1980 pg/mL and 1550 pg/mL and 1320 pg/mL
  IL-10 (Interleukin-10): <low> (2×) and 94.2 pg/ml
  Fibrinogen: <low>
Day 34
  GCP-2 (Granulocyte Chemotactic Potein-2): 17.1 ng/mL and 18.1 ng/mL and 16.2 ng/mL
  IL-17-(Interleukin-17): 0.0152 ng/mL and 0.00808 ng/mL and 0.00572 ng/mL
  GST-alpha (Glutathione S-Transferase alpha): <low> and 4.16 ng/ml and 2.96 ng/ml
  IL-1beta (Interleukin-1beta): 5.12 ng/mL and 3.58 ng/mL
  IL-12p70-(Interleukin-12p70): 0.0725 ng/ml and <low>
  FGF-basic (Fibroblast Growth Factor-basic): 17.8 ng/mL
  Haptoglobin: 281 µg/mL and 162 µg/mL and 140 µg/mL
  IL-18 (Interleukin-18): 11.7 ng/mL and 10.9 ng/mL and 13.1 ng/mL
  CRP (C Reactive Protein): 17.2 µg/mL and 8.79 µg/mL and 12.4 µg/mL
  Factor VII: 31.7 ng/mL and 33 ng/mL and 29.1 ng/mL
  FGF-9 (Fibroblast Growth Factor-9): <low>
  GM-CSF (Granulocyte Macrophage-Colony Stimulating Factor): <low>
  Apo A1 (Apoilpoprotein A1): 37.8 µg/mL and 48.5 µg/mL and 54.1 µg/mL
  CD40: 96.7 pg/mL and 147 pg/mL and 136 pg/mL
  Eotaxin: 630 pg/mL and 602 pg/mL and 700 pg/mL
  IL-3 (Interleukin-3): <low>
  EGF (Epidermal Growth Factor): 22.4 pg/mL and 14.3 pg/mL and 20.4 pg/mL
  IL-1alpha (Interleukin-1alpha): 361 pg/mL and 447 pg/mL and 587 pg/mL
  Endothelin-1: 22.2 pg/mL and 20.2 pg/mL
  IL-2 (Interleukin-2): <low>
  IFN-gamma (Interferon-gamma): 7.14 pg/mL and 3.58 pg/mL
  IL-4 (Interleukin-4): 17.7 pg/ml and <low>
  IL-11 (Interleukin-11): 17.1 pg/mL
  CD40 Ligand: 1370 pg/mL and 2030 pg/mL and 2180 pg/mL
  IL-10 (Interleukin-10): 94.2 pg/ml and <low>
  Fibrinogen: 136 ug/ml and <low>
Day 41
  GCP-2 (Granulocyte Chemotactic Potein-2): 16.9 ng/mL and 16.3 ng/mL and 20.9 ng/mL
  IL-17-(Interleukin-17): 0.00572 ng/ml (2×) and <low>
  GST-alpha (Glutathione S-Transferase alpha): 1.01 ng/mL and 0.477 ng/mL and 1.64 ng/mL
  IL-1beta (Interleukin-1beta): 4.36 ng/ml and 5.12 ng/ml (2×)
  IL-12p70-(Interleukin-12p70): <low> (2×) and 0.0914 ng/ml
  FGF-basic (Fibroblast Growth Factor-basic): 19.9 ng/mL and 17.8 ng/mL and 18.8 ng/mL
  Haptoglobin: 267 µg/mL and 270 µg/mL and 193 µg/mL
  IL-18 (Interleukin-18): 13.3 ng/mL and 11.7 ng/mL and 11.5 ng/mL
  CRP (C Reactive Protein): 17.1 µg/mL and 10.6 µg/mL and 12.1 µg/mL
  Factor VII: 36.9 ng/mL and 30.4 ng/mL and 27.7 ng/mL
  FGF-9 (Fibroblast Growth Factor-9): <low>
  GM-CSF (Granulocyte Macrophage-Colony Stimulating Factor): <low>
  Apo A1 (Apoilpoprotein A1): 46.8 µg/mL and 49.5 µg/mL and 46 µg/mL
  CD40: 108 pg/mL and 105 pg/mL and 140 pg/mL
  Eotaxin: 629 pg/mL and 493 pg/mL and 694 pg/mL
  IL-3 (Interleukin-3): <low>
  EGF (Epidermal Growth Factor): 28.4 pg/mL and 16.3 pg/mL and 18.4 pg/mL
  IL-1alpha (Interleukin-1alpha): 488 pg/mL and 284 pg/mL and 1950 pg/mL
  Endothelin-1: 21.2 pg/mL and 20.2 pg/mL and 16 pg/mL
  IL-2 (Interleukin-2): <low>
  IFN-gamma (Interferon-gamma): 3.58 pg/ml (2×) and 7.14 pg/ml
  IL-4 (Interleukin-4): 35.7 pg/ml and 17.7 pg/ml (2×)
  IL-11 (Interleukin-11): 17.1 pg/ml and <low> (2×)
  CD40 Ligand: 1680 pg/mL and 1630 pg/mL and 1830 pg/mL
  IL-10 (Interleukin-10): <low>
  Fibrinogen: <low> (2×) and 118 ug/ml
